Structures can show the parent of a compound that is named as a salt.
Key:
MCF7 cells = test: Paper-based single-cell array halo assay of DNA damage (NDF); settings: drug concentration 50 μM (0 at 0 μM); FIG. 6E/6F
Protocol: (§1) Fibroblast cells, human glioblastoma cells (A172) and breast cancer cells (MCF7) were cultured in standard conditions (5% CO2 in air at 37° C.) in RPMI-1640 medium supplemented with 10% (v/v) fetal bovine serum and 1% (v/v) penicillin/streptomycin. For obtaining individual cells, cells were trypsinized.
(§2) After exposure to anticancer treatment (radiation or chemotherapy drug), cells were seeded on the cell array precursor at a density of 1×10^6 cells/ml, forming ordered single-cell arrays (FIG. 1A). The quality of single cell arrays was primarily determined by surface roughness of the substrate (FIGS. 3E-H). As the paper surface became smoother, more cells were attached, and the array became more ordered. The attachment probability was derived as the ratio between adsorbed cells and the number of micro-patches. The probability of single cell array increased as the number of layers increased from 25±3.1%, 70±3.5%, to 87±6.4% for 1, 3 and 5 layers of ink, respectively. Five layers of ink provided a high quality substrate for single cell array formation, making this method ideal for paper-based single-cell halo assay.
(§3) After incubating cells on the paper for 30 min, unattached cells were rinsed away with PBS, followed by addition of 1.5 ml 1% low melting point (LGT)-agarose on paper. The substrate was kept at room temperature for 10 min to allow gel solidification. Then, cells on the paper were immersed in 0.3 M NaOH for 30 min at room temperature, and stained with diluted (×10000) SYBR green I solution for 15 min. After removing unbound dye, cells were imaged using an Olympus IX81 fluorescent microscope and the acquired images were analyzed with in-house image analysis software to quantify DNA damage. Each data point was averaged from at least 50 individual cells.
(§4) An in-house MATLAB image processing software was developed for quantifying DNA damage. In order to isolate individual cells, images were thresholded using Otsu's method into 4 levels. The first level was considered background; the second and third levels were combined to label halo; and the fourth level was used to label the nucleus. All non-background levels were combined to form a binary image of a cell. The eccentricity of each cell object was measured on a scale of 0 to 1, where a score of 0 corresponded to a perfectly circular object and a score of 1 corresponded to a line. Cell objects with an eccentricity>0.5 were removed from the image on the assumption that they contain overlapping cells (due to deposition of un-patterned cells). FIGS. 4A-F show the process of automatic analysis of the single-cell array using MATLAB software. The original image was transferred from a color image to a grayscale image (FIG. 4A). […] DNA damage measurements were calculated based on the halos and nuclei labeled for each cell. […]

fibroblast cells = test: as above; settings: drug concentration 50 μM (0 at 0 μM); FIG. 6E/6F
Protocol: as §1, §2, §3, §4

A172 cells = test: as above; design: species or system human; settings: drug concentration 50 μM (0 at 0 μM); FIG. 6E/6F
Protocol: After incubating cells on the paper for 30 min, unattached cells were rinsed away with PBS, followed by addition of 1.5 ml 1% low melting point (LGT)-agarose on paper. The substrate was kept at room temperature for 10 min to allow gel solidification. […] After removing unbound dye, cells were imaged using an Olympus IX81 fluorescent microscope and the acquired images were analyzed with in-house image analysis software to quantify DNA damage. […]
An in-house MATLAB image processing software was developed for quantifying DNA damage. […] The eccentricity of each cell object was measured on a scale of 0 to 1, where a score of 0 corresponded to a perfectly circular object and a score of 1 corresponded to a line. […] DNA damage measurements were calculated based on the halos and nuclei labeled for each cell. […]

[1] = test system: HCT-116, HCT-116-siRNA-topo1 and HCT-116-siRNA-topo2 cells; test: Single-cell array immunoblotting for topo1, topo2 and γH2AX in halo and nucleus; format: cell-based; settings: alkaline solution, primary antibodies to topo1, topo2, γH2AX, fluorescent secondary antibodies
Protocol: (§5) Identification of topoisomerase complexes with DNA and histones at single-cell level can provide mechanistic confirmation on drug- or radiation-DNA interaction. Three colorectal cancer cell lines, HCT-116 (normal topo1/topo2 expression), HCT-116-siRNA-topo1 (low topo1 expression) and HCT-116-siRNA-topo2 (low topo2 expression), are treated with two drugs (one targets topo1 and the other targets topo2), followed by immunoblotting with the array of invention. First, cells are treated with CPT-11 (topo1 drug), and processed for use with the invention using SYBR SAFE dye to reflect the extent of DNA damage. […] In a second experiment, CPT-11 treated cells are subjected to an alkaline solution to allow damaged DNA diffusion (without fluorescence staining), and then incubated with three primary antibodies (topo1, topo2 and γH2AX) for 10 min. After washing to remove excess antibodies, three fluorescent secondary antibodies against topo1, topo2 and γ-H2AX are added. After washing away excess antibodies, the three proteins are detected with fluorescence imaging. […] Parallel studies with VP-16, which targets topo2 enzyme is performed. […] Similar experiments are performed to test X-ray irradiated cells. The results are compared to provide information on drug actions.

[2] = test system: HCT-116, HCT-116-siRNA-topo1 and HCT-116-siRNA-topo2 cells; test: Single-cell array halo assay in colorectal cancer cell lines with normal or low topo1/topo2 expression; format: cell-based; settings: SYBR SAFE dye; compared among HCT-116, HCT-116-siRNA-topo1 and HCT-116-siRNA-topo2
Protocol: as §5

COc1cccc2c1C(=O)c1c(O)c3c(c(O)c1C2=O)C[C@@](O)(C(=O)CO)C[C@@H]3O[C@H]1C[C@H](N)[C@H](O)[C@H](C)O1 [doxorubicin, doxorubicin hydrochloride]
NDF of MCF7 cells (MCF7 cells): 3.95
NDF of fibroblast cells (fibroblast cells): 4.63
NDF of A172 cells (A172 cells): 3.91

COc1cc([C@@H]2c3cc4c(cc3[C@@H](O[C@@H]3O[C@@H]5CO[C@@H](C)O[C@H]5[C@H](O)[C@H]3O)[C@H]3COC(=O)[C@H]23)OCO4)cc(OC)c1O [VP-16]
Protein found in halos (topoisomerase trapped in damaged DNA) [1]: Only topo2 enzymes are trapped in damaged DNAs and diffused in halos

CCc1c2c(nc3ccc(OC(=O)N4CCC(N5CCCCC5)CC4)cc13)-c1cc3c(c(=O)n1C2)COC(=O)[C@]3(O)CC [irinotecan, irinotecan hydrochloride]
NDF of MCF7 cells (MCF7 cells): 4.05
NDF of fibroblast cells (fibroblast cells): 4.34
Halo size (extent of DNA damage) [2]: smallest in HCT-116-siRNA-topo1 cells
Protein found in halos (topoisomerase trapped in damaged DNA) [1]: Only topo1 is found in halos
